Test results published in US20240165144A1, “COMPOSITIONS AND METHODS FOR MODULATING INNATE IMMUNE SIGNALING PATHWAYS” (Dana-Farber Cancer Institute, Inc., priority 2019, published 2024).

Test system: cGAS-STING signaling
Test: interferon reporter assay with transfected polar cell extracts
Assay type: cell-based
Conditions: iterative HPLC purification on 3 columns; single peak at retention time 24.5 minutes; FIG. 3
Text: FIG. 1A-FIG. 1B—FIG. 1A cGAS is an innate immune signaling enzyme that generates cyclic GMP-AMP in response to cytosolic DNA, image adapted from (7); FIG. 1B.
Applicants then transfected these extracts into the assay that was used to measure the effects of MB21D2 expression on interferon signaling (FIG. 1B workflow at top).

Compound: Nc1ncnc2c1ncn2[C@@H]1O[C@H](CO)[C@@H](O)[C@H]1OP(=O)([O-])OP(=O)([O-])OP(=O)([O-])[O-].[Na+].[Na+].[Na+].[Na+] [2′-ATP, Adenosine 2′-Triphosphate, Sodium Salt]
- anti-STING activity of HPLC-purified fraction: anti-STING activity was localized to a single peak
